The values that follow come from a melting point compilation (Tetko et al.; mined from patent text by program, amines drawn as free bases though some values may be those of a salt).

In general, melting point refers to the temperature, or range, at which the solid turns liquid. Compound `CC(=O)NC1=C(C#N)C(c2cccc([N+](=O)[O-])c2)c2ccc3ccccc3c2O1` (stereo not given) displayed a melting point of 234 to 236 °C.

`O=C1CCC(n2cnc3ccc(Cl)cc3c2=O)C(=O)N1` (stereo not given) registered a melting point of 302 to 305 °C.

In turn, `CC(=O)Nc1c(C#N)cnn1-c1ccc(Cl)c(Cl)c1Cl` yielded a melting point of 222 to 224 °C.

In turn, `Cc1nc(-c2ccc(C#N)cc2)sc1C(=O)N1CO[C@@](Cn2cncn2)(c2ccc(F)cc2F)[C@H]1C` returned a melting point of 200 to 201 °C. As to `[N-]=[N+]=Nc1cc(Cl)nc(-c2ccc([N+](=O)[O-])o2)n1`, the melting point fell in the range of 114 to 116 °C.

In turn, `COc1ccc2[nH]c(COC(C)=O)c(C=O)c2c1[N+](=O)[O-]` came in with a melting point of 201 to 203 °C. With `CC(C)(C)c1cc(C(C)(C)C)c(N)cc1N`, the melting point lay within 153 to 154 °C.

As for `COC(=O)CCCCOc1cc2c(c(Cl)c1Cl)C(=O)C(C)(C1CCCC1)C2` (stereo not given), the melting point lay within 83 to 86 °C. `CCOC(=O)c1cc(-c2ccc(Cl)cc2)cnc1C(Cl)Cl` came in with a melting point of 132 to 134 °C. The result for `CC(C)(C)OC(=O)COC1CCN(CC2CN(c3ccc(CN)cc3)C(=O)O2)CC1` (stereo not given) reads 95 to 96 °C; that for `O=C(O)Cc1ccc(NC(=O)C(COc2ccc(Cl)cc2)NS(=O)(=O)c2ccc(Cl)cc2)cc1` (racemic), 205 to 207 °C; that for `Cn1nnc(-c2ccc3c(c2)c(C2=CCN(CCc4nnnn4C)CC2)cn3-c2ccc(F)cc2)n1`, 171 to 173 °C. As for `O=C1C(Cc2ncccc2Br)c2ccccc2C12COc1cc3c(cc12)OCCO3` (stereo not given), the figure is 217 to 218 °C. In turn, `CCC1(CCOS(C)(=O)=O)C(=O)N2CC=CC(C(=O)OC)N2C1=O` (stereo not given) had a melting point of 94 to 96 °C. The result for `COC(=O)CC(C(=O)OC)c1ccccc1` (stereo not given) reads 54 to 56 °C; that for `CC(C(=O)NCC(F)(F)C(F)(F)F)C(=O)NC1C(=O)N(C)c2cc(F)ccc2OC1C` (stereo not given), 126 to 134 °C; that for `CC(C)C[C@H](NC(=O)OC(C)(C)C)[C@@H](O)c1ncnn1C`, 144 to 145 °C. In the case of `Nc1ccc(Oc2ccc3cccnc3c2)cc1`, the melting point worked out at 131 °C. As for `CC(C)(C)c1cc(SCCOC(=O)c2cc(C(C)(C)C)c(O)c(C(C)(C)C)c2)cc(C(C)(C)C)c1O`, the figure is 136 to 139 °C; as for `Cc1c(Cc2cccnc2)ccc2ccc(Br)cc12`, 101 to 104 °C; as for `Cc1ccnc(Nc2nc(-c3ccc(-c4ccccn4)s3)cs2)c1`, 185 to 187 °C. `CNS(=O)(=O)N=C(NC(=O)OC)C(C)C` gave a melting point of 194 to 199 °C. As for `Cc1c2n(c3ccccc13)CCC(Br)C2=O` (stereo not given), the figure is 126 to 128 °C. Compound `Nc1ccc(/C=C/c2ccccc2)nc1` came in with a melting point of 159 to 160 °C.

As for `CN1CCN(C2=Nc3ccccc3-n3ccc4cc(Cl)cc2c43)CC1`, the melting point was in the range of 170 to 172 °C. Regarding `CCCCC(Cn1cncn1)(C(=O)O)c1ccccc1OC` (stereo not given), the melting point came to 198 °C. As for `CCC1(N2C(=O)c3c(F)c(F)c(F)c(F)c3C2=O)C(=O)NC(=O)N(c2ccccc2)C1=O` (stereo not given), the melting point lay in the range of 218 to 220 °C. On to `COc1ccc2c(C)c(CCO)c(=O)oc2c1`, for which the melting point was 141 to 142 °C.

Take `COc1cc(OC)cc(C2CCCCC2=O)c1` (stereo not given): the melting point lay within 61 to 62 °C.

Turning to `COc1ccc(-c2[nH]cnc2-c2cc(OC)c(O)c(OC)c2)cc1F`, the melting point is 125 to 127 °C. `N#Cc1ccc([C@@H]2[C@@H]3C(=O)N(CC4CCCCC4)C(=O)[C@@H]3[C@H]3CCCN32)cc1` (racemic) yielded a melting point of 119 to 122 °C. The result for `Nc1cccc(COc2cccc3cccnc23)c1` reads 146 to 147 °C; that for `O=C1C(Br)=C(c2ccccc2)C(=O)N1Nc1ccccc1`, 146 to 147 °C.

The compound `O=C(Cn1c2c(c3ccccc31)CCNCC2)Nc1cccnc1` yielded a melting point of 138 to 140 °C. The result for `CCCc1c(OCC(O)CSc2ccc(C(=O)CCC(=O)O)c(F)c2)ccc(C(C)=O)c1O` (stereo not given) reads 136 to 137 °C.
